Patent publication US6352982B1, “4,1-benzoxazepines, their analogues, and their use as somatostatin agonists” (Takeda Chemical Industries, Ltd., priority 1997, dated 2002)
Structures can show the parent of a compound that is named as a salt.

What was measured:
Experiment in all cases: Binding inhibition of 125I-somatostatin, CHO cell membrane fraction
[1] = molecular target: T1, human somatostatin receptor SSTR4 (Homo sapiens, UniProt P31391); conditions: 125I-somatostatin binding, 25° C. for 60 minutes, read-out: Activities for human somatostatin receptor (IC50 value) SSTR4
T1 construct: expressed in transfected cells; host or cells: CHO (dhfr-) cells, strain SSTR4-1-2
T1 sequence (P31391 whole entry): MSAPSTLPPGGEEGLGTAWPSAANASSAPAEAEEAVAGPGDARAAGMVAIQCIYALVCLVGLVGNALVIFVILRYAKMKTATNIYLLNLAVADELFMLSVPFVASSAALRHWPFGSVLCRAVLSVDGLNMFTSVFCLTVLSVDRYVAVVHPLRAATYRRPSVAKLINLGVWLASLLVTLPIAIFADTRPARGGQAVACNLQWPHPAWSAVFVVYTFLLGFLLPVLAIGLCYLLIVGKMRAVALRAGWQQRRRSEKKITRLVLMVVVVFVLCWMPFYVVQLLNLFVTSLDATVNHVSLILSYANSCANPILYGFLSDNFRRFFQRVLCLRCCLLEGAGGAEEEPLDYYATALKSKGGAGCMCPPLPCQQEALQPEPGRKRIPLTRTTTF
Method: (§1) A human somatostatin receptor expression CHO cell strain, SSTR1-8-3, SSTR2-HS5-9, SSTR3-15-19, SSTR4-1-2 or SSTR5-32-4 (10^9), was suspended in a phosphate buffered saline containing 5mM of EDTA (PBS-EDTA). The suspension was centrifuged. To the cell pellet was added 10 ml of a homogenation buffer solution for cells (10 mM NaHCO3, 5 mM EDTA, pH=7.5). The mixture was homogenized by a Politron homogenizer and centrifuged at 400×g for 15 minutes. The supernatant obtained was farther centrifuged at 100,000×g for an hour to obtain a precipitate of the membrane fraction. The precipitate was suspended in 2 ml of a buffer solution for assay ([…], 0.1% of BSA (bovine serum albumin) and […], 1 μ/ml of pepstatin, 20 μg/ml of leupeptin, 10 μg/ml of phosphoramide, pH=7.5). The suspension was centrifuged at […] for an hour. The membrane fraction recovered as precipitate was suspended again in 20 ml of buffer solution for assay. The suspension was placed in tubes and stored at −80° C. The suspension was thawed when used, and used at every use.
(§2) The membrane fraction prepared in Example 1 was diluted with a buffer solution for assay to adjust the concentration to 3 μg/ml. The diluate was placed in tubes each in quantity of 173 μl. To this were simultaneously added 2 μl of a solution of a compound in DMSO and 25μl of a 200pM radioisotope-labeled somatostatin (^125I-somatostatin: Amersham) solution. For measurement of the maximum binding, a reaction mixture added with 2 μl of DMSO and 25μl of a 200pM ^125I-somatostatin solution was prepared. For measurement of non-specific binding, a reaction mixture added with 2 μl of a 100 μM somatostatin solution diluted in DMSO and 25 μl of a 200pM ^125I-somatostatin solution was prepared at the same time. The mixtures were allowed to react at 25° C. for 60 minutes. Then, the reaction mixture was filtered by aspiration using a GF/B glass fiber filter paper (Whatman) treated with polyethylenimine. After filtration, the radioactivity of 125I-somatostatin remaining on the filter paper was measured by a γ-counter.
(§3) The binding rate (%) of each compound was calculated by the formula: […]
(§4) (where PBM: Percent maximum Binding, B: radioactivity when a compound was added, Bo: maximum binding radioactivity, NSB: non-specific binding radioactivity). The binding rates were calculated by changing the concentrations of the compound to obtain the 50% inhibiting concentration of the compound (IC50 value) by the Hil l plots.
(§5) The activities (IC50 value, μM) of the compounds for each human somatostatin receptor obtained by the above method are shown in the following Table 5.

[2] = molecular target: T2, human somatostatin receptor SSTR2 (Homo sapiens, UniProt P30874); conditions: 125I-somatostatin binding, 25° C. for 60 minutes, read-out: Activities for human somatostatin receptor (IC50 value) SSTR2
T2 construct: expressed in transfected cells; host or cells: CHO (dhfr-) cells, strain SSTR2-HS5-9
T2 sequence (P30874 whole entry): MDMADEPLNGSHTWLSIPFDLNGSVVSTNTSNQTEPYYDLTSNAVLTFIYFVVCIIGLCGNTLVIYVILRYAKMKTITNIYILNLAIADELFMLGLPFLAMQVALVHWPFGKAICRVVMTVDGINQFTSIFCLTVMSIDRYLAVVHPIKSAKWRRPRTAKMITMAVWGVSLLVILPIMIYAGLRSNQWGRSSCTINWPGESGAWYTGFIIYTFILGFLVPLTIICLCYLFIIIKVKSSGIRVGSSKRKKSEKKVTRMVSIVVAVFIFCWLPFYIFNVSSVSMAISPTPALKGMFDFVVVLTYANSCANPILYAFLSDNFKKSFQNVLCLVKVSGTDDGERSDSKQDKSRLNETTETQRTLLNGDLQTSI
Method: as §1, §2, §3, §4, §5

[3] = molecular target: T3, human somatostatin receptor SSTR5 (Homo sapiens, UniProt P35346); conditions: 125I-somatostatin binding, 25° C. for 60 minutes, read-out: Activities for human somatostatin receptor (IC50 value) SSTR5
T3 construct: expressed in transfected cells; host or cells: CHO (dhfr-) cells, strain SSTR5-3-2-4 (also printed SSTR5-32-4)
T3 sequence (P35346 whole entry): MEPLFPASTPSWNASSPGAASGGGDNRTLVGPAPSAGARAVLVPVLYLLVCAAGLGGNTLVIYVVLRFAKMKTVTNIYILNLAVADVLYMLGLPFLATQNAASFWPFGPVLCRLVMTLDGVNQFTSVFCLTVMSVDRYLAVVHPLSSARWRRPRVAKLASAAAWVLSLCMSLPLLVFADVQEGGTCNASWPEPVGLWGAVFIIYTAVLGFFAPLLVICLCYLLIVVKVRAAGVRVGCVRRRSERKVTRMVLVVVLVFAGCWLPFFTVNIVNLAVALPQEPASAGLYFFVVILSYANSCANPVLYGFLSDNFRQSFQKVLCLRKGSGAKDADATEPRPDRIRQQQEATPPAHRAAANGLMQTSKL
Method: as §1, §2, §3, §4, §5

[4] = molecular target: T4, human somatostatin receptor SSTR1 (Homo sapiens, UniProt P30872); conditions: 125I-somatostatin binding, 25° C. for 60 minutes, read-out: Activities for human somatostatin receptor (IC50 value) SSTR1
T4 construct: expressed in transfected cells; host or cells: CHO (dhfr-) cells, strain SSTR1-8-3
T4 sequence (P30872 whole entry): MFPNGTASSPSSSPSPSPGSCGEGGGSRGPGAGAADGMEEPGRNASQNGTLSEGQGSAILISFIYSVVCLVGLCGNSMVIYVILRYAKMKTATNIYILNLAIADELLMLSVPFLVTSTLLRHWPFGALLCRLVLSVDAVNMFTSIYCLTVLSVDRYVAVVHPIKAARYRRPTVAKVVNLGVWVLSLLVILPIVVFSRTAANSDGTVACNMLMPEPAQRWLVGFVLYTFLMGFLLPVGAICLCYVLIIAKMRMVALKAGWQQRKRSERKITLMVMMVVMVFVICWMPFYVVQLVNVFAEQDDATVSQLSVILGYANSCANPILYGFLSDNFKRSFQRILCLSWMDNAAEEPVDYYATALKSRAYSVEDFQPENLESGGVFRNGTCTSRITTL
Method: as §1, §2, §3, §4, §5

[5] = molecular target: T5, human somatostatin receptor SSTR3 (Homo sapiens, UniProt P32745); conditions: 125I-somatostatin binding, 25° C. for 60 minutes, read-out: Activities for human somatostatin receptor (IC50 value) SSTR3
T5 construct: expressed in transfected cells; host or cells: CHO (dhfr-) cells, strain SSTR3-15-19
T5 sequence (P32745 whole entry): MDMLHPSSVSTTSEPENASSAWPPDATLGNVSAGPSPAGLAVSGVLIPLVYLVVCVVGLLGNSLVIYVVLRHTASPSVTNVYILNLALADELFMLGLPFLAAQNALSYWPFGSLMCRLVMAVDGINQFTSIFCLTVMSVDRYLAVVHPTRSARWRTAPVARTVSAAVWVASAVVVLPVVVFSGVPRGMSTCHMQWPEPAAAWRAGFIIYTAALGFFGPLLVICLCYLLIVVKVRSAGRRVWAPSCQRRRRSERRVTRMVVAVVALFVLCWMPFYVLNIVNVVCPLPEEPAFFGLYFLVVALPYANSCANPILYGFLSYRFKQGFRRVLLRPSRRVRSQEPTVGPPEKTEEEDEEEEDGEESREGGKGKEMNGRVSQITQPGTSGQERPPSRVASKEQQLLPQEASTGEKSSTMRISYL
Method: as §1, §2, §3, §4, §5

Row | Structure (SMILES) | IC50 [1] | IC50 [2] | IC50 [3] | IC50 [4] | IC50 [5]
1 | NCc1ccc(C2OC(CC(=O)NCc3ccccc3F)C(=O)N(Cc3ccc(-c4ccccc4)cc3)c3ccc(Cl)cc32)cc1 (stereo not drawn) [Example 87, 3,5-Trans-N-(2-fluorobenzyl)-5-(4-aminomethylphenyl)-1-(4-biphenylmethyl)-7-chloro-2-oxo-1,2,3,5-tetrahydro-4,1-benzoxazepine-3-acetamide•monohydrochloride] | 300 nM | 800 nM | 1 nM | 800 nM | 20 nM
2 | COc1ccc(CN2C(=O)C(CC(=O)NCc3ccccc3F)OC(c3ccc(CN)s3)c3cc(Cl)ccc32)cc1 (stereo not drawn) [Example 91, 3,5-Trans-N-(2-fluorobenzyl)-5-(2-aminomethylthiophen-5-yl)-7-chloro-1-(4-methoxybenzyl)-2-oxo-1,2,3,5-tetrahydro-4,1-benzoxazepine-3-acetamide•monohydrochloride] | 1000 nM | > 1000 nM | 7 nM | > 1000 nM | 40 nM
3 | CC(C)(N)c1cccc(C2OC(CC(=O)NCc3ccccc3F)C(=O)N(Cc3ccc(-c4ccccc4)cc3)c3ccc(Cl)cc32)c1 (stereo not drawn) [Example 93, 3,5-Trans-N-(2-fluorobenzyl)-5-[3-[(1-amino-1-methyl)ethyl]phenyl]-1-(4-biphenylmethyl)-7-chloro-2-oxo-1,2,3,5-tetrahydro-4,1-benzoxazepine-3-acetamide•monohydrochloride] | 200 nM | 500 nM | 9 nM | 900 nM | 4 nM

Now from value to molecule:

Row | IC50 [1] | IC50 [2] | IC50 [3] | IC50 [4] | IC50 [5] | Structure (SMILES)
4 | 4000 nM | 6000 nM | 7 nM | 8000 nM | 300 nM | CC(C)(C)CN1C(=O)[C@H](CC(=O)NCc2ccccc2F)O[C@@H](c2cccc(CN)c2)c2cc(Cl)ccc21 [Example 25, (3S,5S)-N-(2-fluorobenzyl)-5-(3-aminomethylphenyl)-7-chloro-1-neopentyl-2-oxo-1,2,3,5-tetrahydro-4,1-benzoxazepine-3-acetamide•monohydrochloride]
5 | 4000 nM | > 10000 nM | 600 nM | 10000 nM | 7000 nM | CC(C)(C)CN1C(=O)[C@@H](CC(=O)NCc2ccccc2F)O[C@H](c2cccc(CN)c2)c2cc(Cl)ccc21 [Example 26, (3R,5R)-N-(2-fluorobenzyl)-5-(3-aminomethylphenyl)-7-chloro-1-neopentyl-2-oxo-1,2,3,5-tetrahydro-4,1-benzoxazepine-3-acetamide•monohydrochloride]
